Where two headings read alike, the source gives them in different places.
How the values were obtained:
[1] = system: Wheat; assay: Whole Plant Screen (2), wheat; type: in vivo, Wheat (Timmo); details: WW, 4000 ppm
Protocol: (§1) Compound numbers 12-13, 16-17 and 19-20 were tested on an alternative whole plant screen (2). The compounds were tested for plant growth regulator activity against five species for various growth effects relevant to plant growth regulation.
The plant species used in this screen are presented in Table IV with the leaf stage at which they were sprayed. Each chemical was applied at 4000 ppm (4 kg/ha in a 1000 l/ha field volume) using a tracksprayer and a SS8004E (Teejet) nozzle. […]
After 2-6 weeks in the glasshouse, depending on the time of year, the plants were visually assessed for morphological characteristics. Formulation blanks were used as controls to assess the plants. […]

[2] = system: Rice; assay: Whole Plant Screen (2), rice; type: in vivo, Rice (Ishikari); details: RC, 4000 ppm
Protocol: (§2) After 2-6 weeks in the glasshouse, depending on the time of year, the plants were visually assessed for morphological characteristics. Formulation blanks were used as controls to assess the plants.
(§3) Compound numbers 1, 5 and 7 (of the present invention) were tested against compounds A, B, C and D (compound Nos. 12, 2, 24 and 50 of Table 1 EP No. 0052424) on whole plant screen (2). The compounds were tested of plant growth regulator activity against five species and for various growth effects relevant to plant growth regulation. The structures are set out in FIG. 1.
(§4) The plant species used in this screen are presented in Table XII with the leaf stage at which they were sprayed Each chemical was applied at 4000 ppm (4 kg/ha in a 1000 l/ha field volume) using a tracksprayer and a SS8004E (Teejet) nozzle. […]

[3] = system: Rice; assay: Intermediate Retardant Test, rice; type: in vivo, Rice (Ishikari); details: Oryza sativa, 672 h, ~28 days, read-out: Percentage Reduction in Height of Rice (Compared to formulation blank)
Protocol: (§5) Three species are involved in this test RICE, SPRING-BARLEY and APPLES. The variety and growth stages at spray are outlined in Table VI. Compounds were applied at 1000 ppm and 4000 ppm respectively (1 kg and 4 kg ha^-1 at a field volume of 1000 l/ha^-1) as an overall spray. This gives a foliar and root component in the test, i.e. this test will detect the activity of both root and foliar acting compounds. The rice was grown in 4" `paddy` pots, i.e. the roots and bottom of the stems are immersed in water under conditions corresponding to those in paddy fields. Spring barley and apples were grown in 4" pots. The plants were assessed for height to top-most ligule at approximately 28 days after treatment for spring barley and rice and for height to apex at approximately 28 days after the treatment for apples. In each case the result for the 1000 ppm and 4000 ppm test for each compound is compared to the height of the formulation blank in that test, presented as a percentage reduction in height compared to the formulation blank.
as §5, with “in Table XIV. Compounds were” for “in Table VI. Compounds were”, “that test, and presented as” for “that test, presented as”

[4] = system: Spring Barley; assay: Intermediate Retardant Test, spring barley; type: in vivo, Spring Barley (Atem/kym); details: Hordeum vulgare, 672 h, ~28 days, read-out: Percentage Reduction in Height of Spring Barley (Compared to formulation blank)
Protocol: as §5
as §5, with “in Table XIV. Compounds were” for “in Table VI. Compounds were”, “that test, and presented as” for “that test, presented as”

[5] = system: Apples; assay: Intermediate Retardant Test, apples; type: in vivo, Apples (Red Delicious); details: 672 h, ~28 days, read-out: Percentage Reduction in Height of Apples (Compared to formulation blank)
Protocol: as §5
as §5, with “in Table XIV. Compounds were” for “in Table VI. Compounds were”, “that test, and presented as” for “that test, presented as”

[6] = system: plant species of Whole Plant Screen (1) or (2); assay: Across screen comparison: total retardation relative to paclobutrazol (Whole Plant Screens (1) and (2)); type: in vivo; details: for Total Retardation expressed as a percentage of the total retardation caused by paclobutrazol: compounds of Table I, Table X
Description: The following Example is a general indicative comparison of compounds from EP No. 0052424 with compounds from the preferred class in the present invention. The compounds have not been side-by-side tested on this Example because of the large numbers involved but the retardant activity can be compared using a standard which has been on each test.
The compounds which are compared in this Example have been tested on one of two tests. These are the Whole Plant Screen (1) and Whole Plant Screen (2) the methods for which are described in Examples 17 and 18 respectively.
An across screen comparison between compounds is made by expressing the total retardation (ie. sum of retardation scores recorded for each species tested) caused by the compound as a percentage of the total retardation caused by the standard in that test. The standard chemical gives a measure of the performance of the test and environmental factors. By expressing the test compound activity as a percentage of the standard compound activity these factors can be eliminated . The same standard has been used in every test and this is paclobutrazol a proprietory growth regulator.

[7] = system: Wheat; details: WW, 4000 ppm, 2-3 weeks
Protocol: (§7) The compounds were tested for plant growth regulator activity against up to tweleve plant species for various growth effects relevant to plant growth regulation.
(§8) After spray, the plants were grown in a glasshouse with 25° C. day/22° C. night temperatures and supplementary lighting was supplied when necessary (from mercury vapour lamps), to provide a 16 hour photoperiod. The exception to this were the temperate cereals, wheat and barley, which were grown in 16° C. day 13° C. night temperatures
(§9) After 2-3 weeks in the glasshouse, depending on the time of year, the plants were visually assessed for morphological characteristics. Formulations blanks were used as controls to assess the Plants.

[8] = system: Agrostis tenius; details: AT, 4000 ppm, 2-3 weeks
Protocol: as §7, §8, §9

[9] = system: Cynosurus cristatus; details: CC, 4000 ppm, 2-3 weeks
Protocol: as §7, §8, §9

[10] = system: Soya; details: SY, 4000 ppm, 2-3 weeks
Protocol: as §7, §8, §9

[11] = system: Vines; details: VN, 4000 ppm, 2-3 weeks
[12] = system: Lettuce; details: LT, 4000 ppm, 2-3 weeks
Protocol: as §7, §8, §9

[13] = system: Barley; details: BR, 4000 ppm, 2-3 weeks
Protocol: as §7, §8, §9

[14] = system: Dacrylis glomerata; details: DA, 4000 ppm, 2-3 weeks
Protocol: as §7, §8, §9

[15] = system: Tomato; details: TO, 4000 ppm, 2-3 weeks
Protocol: as §7, §8, §9

[16] = system: Barley; assay: Whole Plant Screen (2), barley; type: in vivo, Barley (Atem); details: BR, 4000 ppm, 2-6 weeks, Table V
Protocol: as §3, §4

[17] = system: Maize; assay: Whole Plant Screen (2), maize; type: in vivo, Maize (Earliking); details: MZ, 4000 ppm, 2-6 weeks, Table V
Protocol: as §1
The plant species used in this screen are presented in Table IV with the leaf stage at which they were sprayed. Each chemical was applied at 4000 ppm (4 kg/ha in a 1000 l/ha field volume) using a tracksprayer and a SS8004E (Teejet) nozzle.
(§6) After spray the plants were grown in a glasshouse with 25° C. day 22° C. night temperatures and supplementary lighting was supplied when necessary (from mercury vapour lamps), to provide a 16 hour photoperiod. The exception to this were the temperate cereals, wheat and barley which were grown in 16° C. day 13° C. night temperatures.
as §2, §3
The plant species used in this screen are presented in Table XII with the leaf stage at which they were sprayed Each chemical was applied at 4000 ppm (4 kg/ha in a 1000 l/ha field volume) using a tracksprayer and a SS8004E (Teejet) nozzle.
as §6, with “day/22°” for “day 22°”, “day/13°” for “day 13°”

Row | SMILES | Percent reduction in rice plant height vs formulation blank at 1000 ppm ([3]; Table VII) | Percent reduction in rice plant height vs formulation blank at 4000 ppm ([3]; Table VII) | height reduction vs blank at 1000 ppm ([4]; Table VIII) | height reduction vs blank at 4000 ppm ([4]; Table VIII) | percent reduction in plant height vs formulation blank at 4000 ppm ([5]; Table IX) | Total Retardation expressed as a percentage of the total retardation caused by paclobutrazol [6] | Retardation score (1-3) with greening (G), apical damage (A), tillering/side shooting (T) [7] | Retardation score (1-3) with greening (G), apical damage (A), tillering/side shooting (T) [8] | Retardation score (1-3) with greening (G), apical damage (A), tillering/side shooting (T) [9] | Retardation score (1-3) with greening (G), apical damage (A), tillering/side shooting (T) [10] | percent reduction in plant height vs formulation blank at 1000 ppm ([5]; Table IX) | further results
1 | CC(C)(C)C#CC(O)(Cn1cncn1)C(C)(C)C (stereo not drawn) [Compound 5, 2,2-dimethyl-3-hydroxy-3-(3,3-dimethyl-but-1-yne-1-yl)-4-(1,2,4-triazol-1-yl)-butane] | 11.4% | 21.2% | 7% | 22.6% | 31.5% | 28.1 % of paclobutrazol | 2 (21-60% retardation) | 1 (10-30% retardation) | 2 (21-60% retardation) | 2G |  | G = Greening effect ([1]; side-by-side, Table XIII): 2 (31-60%); T = Tillering or side shooting ([1]; side-by-side, Table XIII): 2 (31-60%); T = Tillering or side shooting ([2]; side-by-side, Table XIII): 2 (31-60%); Percent reduction in rice plant height vs formulation blank at 1000 ppm ([3]; side-by-side, Table XVI): 10%; Percent reduction in rice plant height vs formulation blank at 4000 ppm ([3]; side-by-side, Table XVI): 10%; height reduction vs blank at 1000 ppm ([4]; side-by-side, Table XV): 9%; height reduction vs blank at 4000 ppm ([4]; side-by-side, Table XV): 11%; percent reduction in plant height vs formulation blank at 1000 ppm ([5]; side-by-side, Table XVII): 2%; percent reduction in plant height vs formulation blank at 4000 ppm ([5]; side-by-side, Table XVII): 24%; range of activity / superiority in comparison with EP 0052424 compounds ([6]; Tables X and XI, across screen comparison): lower range of activity than the rest of the preferred class; Retardation score (1-3) with greening (G), apical damage (A), tillering/side shooting (T) [11]: 1GT; Retardation score (1-3) with greening (G), apical damage (A), tillering/side shooting (T) [12]: 1 (10-30% retardation)
2 | CCC(C)CC#CC(O)(Cn1cncn1)C(C)(C)C (stereo not drawn) [Compound 10, 2,2-dimethyl-3-hydroxy-3-(4-methyl-hex-1-yne-1-yl)-4-(1,2,4-triazol-1-yl)-butane] | 20.7% | 38.2% | 20.2% | 72.4% | 27.1% | 47.8 % of paclobutrazol | 2GT | 1 (10-30% retardation) | 2 (21-60% retardation) | 2GA | 9.8% | Retardation score (1-3) with greening (G), apical damage (A), tillering/side shooting (T) [13]: 2GT; Retardation score (1-3) with greening (G), apical damage (A), tillering/side shooting (T) [14]: 1 (10-30% retardation); Retardation score (1-3) with greening (G), apical damage (A), tillering/side shooting (T) [15]: 1G
3 | CC(C)(C)C(O)(C#CCCCCl)Cn1cncn1 (stereo not drawn) [Compound 13] | 6% | 5.2% | 17% | 41% | 9.2% | 83.3 % of paclobutrazol |  |  |  |  | 2.8% | I = Interligular or internodal length reduction [16]: 2 (31-60%); G = Greening effect ([1]; 2-6 weeks, Table V): 1 (10-30%); T = Tillering or side shooting ([1]; 2-6 weeks, Table V): 1 (10-30%); I = Interligular or internodal length reduction ([2]; 2-6 weeks, Table V): 2 (31-60%); R = Retardation ([2]; 2-6 weeks, Table V): 2 (31-60%); T = Tillering or side shooting ([2]; 2-6 weeks, Table V): 1 (10-30%); I = Interligular or internodal length reduction [17]: 1 (10-30%); R = Retardation [17]: 1 (10-30%)

Source: patent US4895589A, “Heterocyclic compounds” (Imperial Chemical Industries PLC, priority 1985, dated 1990)
